How the values were obtained:
[1] = buffer; cited from earlier work
[2] = system: cornea; conditions: riboflavin drops, UVA 30 minutes, ablated cornea; cited from earlier work
[3] = system: keratoconus; conditions: 0.1% riboflavin drops, UVA 3 mW/cm 30 minutes, deepithelialized cornea; cited from earlier work
[4] = system: porcine cornea; assay: Stress-strain analysis of corneal buttons after photoinitiator and UV exposure
[5] = system: keratoconus; assay: Treatment of keratoconus with photoinitiator and UV irradiation; type: in vivo; conditions: 0.35M sodium persulfate drops; one 10-second UV burst 1000 mW
Experimental: A subject is diagnosed with keratoconus in both eyes. They are not able to wear contact lenses. […] Corneal hysteresis measurements are made using the Reichert Ocular Response Analyzer. Corneal hysteresis (CH) is at least 3 numbers less than the normal population. Corneal topography is also conducted to identify the location of keratoconus. The subject is chosen to receive treatment using short wavelength ultraviolet irradiation following administration of a low concentration photoinitiator. Drops of 0.35M sodium persulfate in 0.02M sodium phosphate buffer at a pH of 7.6-8.0 are administered to the cornea in an applicator designed to limit exposure to the location of keratoconus on the corneal surface. The cornea is then exposed to one 10-second burst of ultraviolet irradiation at an intensity of 1000 mW.

[6] = system: post-LASIK ectasia; assay: Treatment for post-LASIK ectasia with photoinitiator and UV irradiation; type: in vivo; conditions: 0.35M sodium persulfate drops; one 10-second UV burst 1000 mW
Experimental: A subject is diagnosed with ectasia following a LASIK procedure. […] Mechanical stability is measured using the Reichert Ocular Response Analyzer. CH values correlate with reduced mechanical stability. Pachymetry of the cornea measures a corneal stromal thickness of 300 microns or less in areas of the cornea, indicative of post-LASIK ectasia. The subject is chosen to receive treatment using short wavelength ultraviolet irradiation following administration of a low concentration photoinitiator. Drops of 0.35M sodium persulfate in 0.02M sodium phosphate buffer at a pH of 7.6-8.0 are administered to the cornea in an applicator designed to limit exposure to the location of keratoconus on the corneal surface. The cornea is then exposed to one 10-second burst of ultraviolet irradiation at an intensity of 1000 mW.

[7] = system: cornea following orthokeratology lens wear; assay: Corneal stabilization following orthokeratology lens wear; type: in vivo; conditions: treated eye compared to untreated control eye; 0.35M sodium persulfate; one 10-second UV burst 1000 mW
From the text: Subjects are fitted with lenses for orthokeratology. The subjects have one (1) eye treated by exposure to ultraviolet irradiation following pretreatment with a photoinitiator. The contralateral eye is an untreated control. Selection of the eye to be treated is random. Examinations at the initial visit and at each follow-up include unaided visual acuity, slit-lamp examination, refractive error, corneal topography, and corneal hysteresis using the Reichert Ocular Response Analyzer. CH values correlate with reduced mechanical stability. The subject is chosen to receive treatment using short wavelength ultraviolet irradiation following administration of a low concentration photoinitiator. Drops of 0.35M sodium persulfate in 0.02M sodium phosphate buffer at a pH of 7.6-8.0 are administered to the cornea in an applicator designed to limit exposure to the corneal surface. The cornea is then exposed to one 10-second burst of ultraviolet irradiation at an intensity of 1000 mW.

CC(C#N)(CCC(=O)O)N=NC(C)(C#N)CCC(=O)O (stereo not drawn) [4,4′-Azobis(4-cyanovaleric acid)]
10th Half-life ° C. (Solvent) [1]: 69 (water) ° C.

Cc1cc2nc3c(=O)[nH]c(=O)nc-3n(C[C@H](O)[C@H](O)[C@H](O)CO)c2cc1C [riboflavin]
corneal biomechanical stiffness [2]: significant increase | clinical treatment of keratoconus [3]: successful

O=S(=O)([O-])OOS(=O)(=O)[O-].[Na+].[Na+] [sodium persulfate]
low modulus following exposure to ultraviolet irradiation ([4]; 0.35M sodium persulfate 1 min, 10-second bursts UV 1000 mW, 310-400 nm, acetic anhydride softened cornea): increased | low modulus ([4]; four 10-second UV exposures): nearly equal to untreated control cornea | strengthening (low modulus) ([4]; single 10-second UV exposure, FIG. 1): maximum | low modulus ([4]; subsequent UV exposures, FIG. 1): reduced the increase in low modulus | corneal hysteresis (CH) [5]: increase | vision [5]: significant improvement | corneal hysteresis (CH) [6]: two-fold increase | vision [6]: significant improvement | regression of visual acuity [7]: minimal to no regression

— patent publication US20110060267A1 (priority 2008, published 2011)
